Experimental data as given in PubChem BioAssay AID2305 (GlaxoSmithKline (GSK), 2010).

What follows are compounds tested on P. falciparum 3D7 growth, pLDH absorbance (assay: P. falciparum 3D7 growth inhibition, dose response, strain 3D7 (AID 2305)).

**Q.** Which IC50 does the source give for `CCCC(C)NC[C@@H](O)[C@H](Cc1ccccc1)NC(=O)c1cc(NCC)cc(N2CCCCS2(=O)=O)c1` (some centres undefined) here?
**A.** 160 nM

**Q.** `O=C(NCc1cccc(Cl)c1)c1ccc(CNC2CCN(Cc3ccccc3)CC2)cc1` was tested. Which IC50 did it give?
**A.** 880 nM

**Q.** For `O=c1cc(NC[C@@H]2CCC[C@@H]2NCc2ccc(Cl)c(Cl)c2)[nH]c2ccccc12`, which IC50 is on record?
**A.** 600 nM

**Q.** Which IC50 does the source give for `Cc1nc2nc(N)nc(N)c2c(C)c1Cc1ccc(Cl)cc1` here?
**A.** 220 nM

**Q.** How did the IC50 turn out when `CN(C)C(=O)CC(=O)NCc1cccc(Cl)c1` was run?
**A.** 710 nM

**Q.** Which IC50 does the source give for `CN(C)CCC(O)C=C(c1ccc(Cl)cc1)c1ccc(Cl)cc1` (centres undefined) here?
**A.** 950 nM

**Q.** Which IC50 does the source give for `COc1cc2nc(NCCc3ccccc3)nc(N(C)Cc3ccccc3)c2cc1OC` here?
**A.** 830 nM

**Q.** Which IC50 does the source give for `Cc1cnc(Nc2cccc(CCN3CCOCC3)c2)nc1NC(C)C` here?
**A.** 740 nM

**Q.** `COc1ccc(N2CCN(CCCCNC(=O)c3ccc(NC(=O)c4cccc(Cl)c4)cc3)CC2)c(OC)c1` was tested. Which IC50 did it give?
**A.** 910 nM

**Q.** With `CCCNCc1ccc(-c2ccc(CN(Cc3cnc(C)cn3)C(=O)CC#N)cc2)nc1` as the compound, how does the IC50 read?
**A.** 1220 nM

**Q.** `Cc1csc2nc(-c3ccccn3)nc(Nc3ccncn3)c12` was tested. Which IC50 did it give?
**A.** 790 nM

**Q.** `COCCSc1nc2scc(C)c2c(=O)n1Cc1cccc(OC)c1` was tested. Which IC50 did it give?
**A.** 910 nM

**Q.** With `COc1ccc(N2CCN(CCc3ccc(NC(=O)c4ccc([N+](=O)[O-])cc4)cc3)CC2)c(OC)c1` as the compound, how does the IC50 read?
**A.** 1170 nM

**Q.** For `CN1CCN(c2ccnc3ccc(NC(=O)Nc4ccc5c(c4)CCCC5=O)cc23)CC1`, which IC50 is on record?
**A.** 130 nM

**Q.** How did the IC50 turn out when `CC1CCN(CCNC(=O)c2ccc3c(=O)n(Cc4ccc(Cl)cc4)c(=S)[nH]c3c2)CC1` was run?
**A.** 700 nM

**Q.** `COc1ccc(CN2CCCN(Cc3cccc(C(=O)Nc4ccc(C)c(F)c4)c3)CC2)cc1` was tested. Which IC50 did it give?
**A.** 1310 nM

**Q.** `CC(C)C[C@H](NC(=O)c1cc(-c2ccc(F)cc2)no1)C(=O)O` (tested in a mixture with another compound) was tested. Which IC50 did it give?
**A.** 980 nM

**Q.** Which IC50 does the source give for `Cc1ccc(NC(=O)c2cnc(N3CCN(c4ccncc4)CC3)c(Cl)c2)cc1` here?
**A.** 960 nM

**Q.** `Cc1cc(NN=Cc2ccccc2[N+](=O)[O-])c2cc(C(F)(F)F)ccc2n1` was tested. Which IC50 did it give?
**A.** 750 nM

**Q.** `COc1ccc(C(=O)CCC(=O)N(Cc2ccc(-c3ccc(CNCCc4ccccc4)cn3)cc2)C(C)CN(C)C)cc1F` (centres undefined) was tested. Which IC50 did it give?
**A.** 750 nM

**Q.** With `CCn1c(-c2nonc2N)nc2c(-c3cccc(NC(=O)Nc4ccc5c(c4)CCC5)c3)ncc(OCCCN)c21` as the compound, how does the IC50 read?
**A.** 780 nM

**Q.** With `COC(=O)c1cccc(CNCc2ccc(-c3ccc(-c4nc5c(C)cccc5[nH]4)cc3)cc2)c1` as the compound, how does the IC50 read?
**A.** 280 nM

**Q.** For `Cc1ccc2nc(C)cc(NN=Cc3ccc([N+](=O)[O-])cc3)c2c1`, which IC50 is on record?
**A.** 790 nM

**Q.** For `CC(=O)c1cccc(NC(=O)NC2CCN(c3ccnc(Nc4ccc(F)cc4)n3)C2)c1` (centres undefined), which IC50 is on record?
**A.** 650 nM

**Q.** Which IC50 does the source give for `CC(C)CCN=C(N)c1ccc(OCCCCCOc2ccc(C(N)=NCCC(C)C)cc2)cc1` here?
**A.** 530 nM

**Q.** For `O=C(/C=C/c1ccc(Cl)c(Cl)c1)NC1CCN(Cc2ccc(O)cc2)CC1`, which IC50 is on record?
**A.** 690 nM

**Q.** With `CS(=O)(=O)CCNC(=O)c1ccc(-c2cc3c(Nc4ccc5c(cnn5Cc5ccccc5)c4)ncnc3cn2)o1` as the compound, how does the IC50 read?
**A.** 1000 nM

**Q.** How did the IC50 turn out when `CNCCNCc1cccc(-c2cccc(-c3nc4c(C)cccc4[nH]3)c2)c1` was run?
**A.** 770 nM

**Q.** With `O=C(Nc1ccccc1)N(Cc1ccc(-c2ccc(CNC3CCCC3)cc2)cc1)C1CCN(Cc2ccccc2)CC1` as the compound, how does the IC50 read?
**A.** 410 nM

**Q.** Which IC50 does the source give for `CC(C)N(C(=O)CSc1nc2cc(Cl)ccc2c(=O)n1Cc1ccccc1)C(C)C` here?
**A.** 170 nM

**Q.** `COc1cccc(OC)c1-c1ccccc1NC(=O)N1CCCc2cc(C)ccc21` was tested. Which IC50 did it give?
**A.** 820 nM

**Q.** For `C[C@H](Cc1ccc(OCCCCCCOc2ccc(C[C@@H](C)N[C@H](C)c3ccccc3)cc2)cc1)NC[C@H](O)c1cccc(Cl)c1`, which IC50 is on record?
**A.** 240 nM

**Q.** For `Cc1cccc(Nc2nc(N[C@@H]3CCCNC3)nc3cc[nH]c(=O)c23)c1`, which IC50 is on record?
**A.** 680 nM

**Q.** Which IC50 does the source give for `N#Cc1ccc2c(c1)CCN(CCC1CCC(NC(=O)c3cc4ccc(Br)cc4[nH]3)CC1)C2` (centres undefined) here?
**A.** 760 nM

**Q.** For `O=C(Nc1ccc(C(=O)OCC2CCCCC2)cc1)N[C@@H](Cc1ccc(O)cc1)C(=O)NC1CCN(Cc2ccc(O)cc2)C1` (some centres undefined), which IC50 is on record?
**A.** 870 nM

**Q.** `COc1ccc2nccc(CCC3(O)CCC(NCc4cc5c(cc4F)SCC(=O)N5)CC3)c2c1` (centres undefined) was tested. Which IC50 did it give?
**A.** 670 nM

**Q.** `Cc1noc(C)c1-c1cccc(CNCc2cccc(-c3ccc(-c4nc5ccccc5[nH]4)s3)c2)c1` was tested. Which IC50 did it give?
**A.** 200 nM

**Q.** For `Fc1ccc(-c2cncc(Nc3ccncc3)n2)cc1`, which IC50 is on record?
**A.** 1320 nM

**Q.** For `O=C(/C=C/c1ccc(F)c(C(F)(F)F)c1)N1CCC(CN2CCC(c3c[nH]c4ccccc34)CC2)CC1`, which IC50 is on record?
**A.** 920 nM

**Q.** How did the IC50 turn out when `CCNC(C)(C)CN(Cc1ccc(-c2ccc(C(F)(F)F)cc2)cc1)C(=O)Cn1c(SCc2ccc(F)cc2)nc(=O)c2c1CCC2` was run?
**A.** 990 nM

**Q.** How did the IC50 turn out when `COc1ccccc1/C=C/C(=O)N(C)C1CCN(CCCCCNC(=O)/C=C/c2ccc(Cl)c(Cl)c2)C1` (centres undefined) was run?
**A.** 870 nM

**Q.** `Cc1cc(N[C@@H](Cc2ccccc2)C(=O)NCCOc2ccccc2)nc(NCCOc2ccccc2)n1` was tested. Which IC50 did it give?
**A.** 1360 nM

**Q.** For `CC(=O)C1(c2ccccc2)CCN(CCC2(c3ccc(Cl)c(Cl)c3)CN(C(=O)C3CCCC3)CCO2)CC1` (centres undefined), which IC50 is on record?
**A.** 800 nM

**Q.** For `CCCCOc1ccc(C(O)C(CN2CCCCC2)c2ccccc2)cc1` (centres undefined), which IC50 is on record?
**A.** 890 nM

**Q.** Which IC50 does the source give for `CCCC1N=C(N)N=C(N)N1c1ccccc1` (centres undefined) here?
**A.** 820 nM

**Q.** `COc1ccc(CCNCc2cc3c(C(C)(C)C)nn(-c4ccc(Cl)cc4)c3[nH]c2=O)cc1OC` was tested. Which IC50 did it give?
**A.** 150 nM

**Q.** With `COc1ccc(-c2cccc(NC(=O)c3cccc(C#N)c3)c2)cc1CN1CCN(C)CC1` as the compound, how does the IC50 read?
**A.** 930 nM

**Q.** `CC(=O)Nc1nc(C(=O)Nc2cccc(-c3ccc(-c4nc5c(C)cccc5[nH]4)cc3)c2)cs1` was tested. Which IC50 did it give?
**A.** 230 nM

**Q.** Which IC50 does the source give for `CN(CCc1ccccc1)c1ncc(-c2ccccc2CNCc2ccccc2O)cn1` here?
**A.** 1020 nM
